Results from patent US11396511B2, “Substituted 9,13b-dihydro-1H-dibenzo[c,f]imidazo[1,5-a]azepin-3-ylbenzamides as anti-inflammatory and analgesic agents” (FRONTBIO CO., LTD., priority 2017, dated 2022).
Several values for one entry are separate records, joined by “and”; a condition that tells them apart may be missing. Identical values can stand only once.

What was measured:
Raw 264.7 cells = test: Measurement of NO production in LPS-stimulated Raw 264.7 cells; type: cell-based; details: for inhibition at 12.5 µM / inhibition at 25 µM / inhibition at 50 µM / inhibition at 100 µM: Mus musculus, RAW264.7, LPS 100 ng/ml, 24 h; for reduction of NO production (in words): together with LPS (100 ng/ml)
Protocol: Raw 264.7 cells were plated in a 96-well cell culture plate (50,000 cells/well). Lipopolysaccharide (LPS) was diluted to 100 ng/ml and the dilution was added to the cell culture media The LPS stimulus was applied for 24 h to induce the activity of the Raw 264.7 cells and supernatants (50 μl each) obtained from the 96-well cell culture plate were plated in a new plate. 50 μl of a sulfanilamide solution was added and the reaction was allowed to proceed for 10 min. 50 μl of a NED solution was added and the reaction was allowed to proceed for 10 min. The amount of NO produced from the cells in the cell culture media was determined by measuring the absorbance at a wavelength of 540 nm.

[1] = system: streptozotocin-induced diabetic mice; test: Von-frey test in diabetic neuropathy models; type: in vivo; set-up: threshold values (Von-frey test): unit not given here; details: for analgesic efficacy, Von-frey test (in words): oral 10, 20, 40, 80 mg/kg; for concentration of highest analgesic efficacy, Von-frey test: oral 10, 20, 40, 80 mg/kg tested
Protocol: 65 mg/kg of streptozotocin (Sigma Corp., USA) was dissolved at a concentration of 15 mg/ml in 0.1 M citrate buffer at pH 4.5 and the resulting solution was administered intraperitoneally to mice. Blood glucose levels were measured 1 week after administration and streptozotocin-induced diabetic mice were chosen.
(§1) After damage to the sciatic nerve, allodynia induced by the mechanical stimulus was measured. Mice were housed in acrylic chambers on a steel mesh floor and acclimated for ≥60 min before testing. Continuous responses were evaluated using Von-frey filaments by the up-down method. The filaments were brought into vertical contact with the affected left soles and the contact was maintained for 5-6 sec. The response was considered to be positive when the mouse rapidly avoided the stimulus, startled or licked its sole. The Von-frey filaments were first used to stimulate the mice.
The inhibitory effects of the test substances on pain were determined in diabetic neuropathy models. To this end, after oral administration of each test substance at concentrations of 10, 20, 40, and 80 mg/kg, threshold values were measured at different periods of time through Von-frey test.

[2] = system: anticancer drug-induced peripheral neuropathy models (vincristine); test: Von-frey test in anticancer drug-induced peripheral neuropathy models; type: in vivo, mice; set-up: threshold values (Von-frey test): unit not given here
Excerpt: Vincristine is an anticancer drug that is widely used to treat malignant tumors, including breast cancer, leukemia, lymphoma, and primary brain tumor. However, vincristine was reported to cause neurotoxicity in peripheral nervous fibers and sensory or motor neuropathy after use. The anticancer drug vincristine is known to cause predictable and consistent neurotoxicity in all patients, particularly patients treated with therapeutic doses. When a patient receives a dose of vincristine, paresthesia accompanied by pain is first observed in proportion to the dose. As neuropathy develops, axons are lost together with motor function. Vincristine is also known to induce hypersensitivity of C nerve fiber nociceptors in the peripheral nervous system. Neuropathy was induced by administration of vincristine. First, 0.05 mg/kg of vincristine was administered intraperitoneally. Thereafter, vincristine was administered intraperitoneally twice a week for 6 weeks (0.125 mg/kg each). Neuropathic pain began to appear at week 3 after administration and significant pain was reported at week 4. The degree of neuropathic pain was measured through the […] (Junzo et al., 2005).
as §1
The analgesic efficacies of the test substances were evaluated in anticancer drug-induced peripheral neuropathy models. To this end, after oral administration of each test substance at concentrations of 10, 20, 40, and 80 mg/kg, threshold values were measured at different periods of time through Von-frey test.

CC(=O)Oc1ccccc1C(=O)NC1=NCC2c3ccccc3Cc3ccccc3N12 (stereo not shown) [E-A, 2-((9,13b-dihydro-1H-dibenzo[c,f]imidazo[1,5-a]azepin-3-yl)carbamoyl)phenyl acetate]
inhibition at 12.5 µM (Raw 264.7 cells): 0% | inhibition at 25 µM (Raw 264.7 cells): 17.1% | inhibition at 50 µM (Raw 264.7 cells): 40.1% | inhibition at 100 µM (Raw 264.7 cells): 52.4% | reduction of NO production (in words) (Raw 264.7 cells): concentration-dependent reduction in NO production | threshold values (Von-frey test) ([1]; oral 10 mg/kg, 1 h): 0.260 | threshold values (Von-frey test) ([1]; oral 10 mg/kg, 2 h): 0.263 | threshold values (Von-frey test) ([1]; oral 10 mg/kg, 3 h): 0.324 | threshold values (Von-frey test) ([1]; oral 10 mg/kg, 4 h): 0.286 | threshold values (Von-frey test) ([1]; oral 10 mg/kg, 5 h): 0.225 | threshold values (Von-frey test) ([1]; oral 10 mg/kg, basal): 0.286 | threshold values (Von-frey test) ([1]; oral 20 mg/kg, 1 h): 0.263 | threshold values (Von-frey test) ([1]; oral 20 mg/kg, 2 h): 0.324 | threshold values (Von-frey test) ([1]; oral 20 mg/kg, 3 h): 0.321 | threshold values (Von-frey test) ([1]; oral 20 mg/kg, 4 h): 0.247 | threshold values (Von-frey test) ([1]; oral 20 mg/kg, 5 h): 0.225 | threshold values (Von-frey test) ([1]; oral 20 mg/kg, basal): 0.186 | threshold values (Von-frey test) ([1]; oral 40 mg/kg, 1 h): 0.286 | threshold values (Von-frey test) ([1]; oral 40 mg/kg, 2 h): 0.458 | threshold values (Von-frey test) ([1]; oral 40 mg/kg, 3 h): 0.419 | threshold values (Von-frey test) ([1]; oral 40 mg/kg, 4 h): 0.391 | threshold values (Von-frey test) ([1]; oral 40 mg/kg, 5 h): 0.186 | threshold values (Von-frey test) ([1]; oral 40 mg/kg, basal): 0.247 | threshold values (Von-frey test) ([1]; oral 80 mg/kg, 1 h): 0.391 | threshold values (Von-frey test) ([1]; oral 80 mg/kg, 2 h): 0.391 | threshold values (Von-frey test) ([1]; oral 80 mg/kg, 3 h): 0.247 | threshold values (Von-frey test) ([1]; oral 80 mg/kg, 4 h): 0.286 | threshold values (Von-frey test) ([1]; oral 80 mg/kg, 5 h): 0.186 | threshold values (Von-frey test) ([1]; oral 80 mg/kg, basal): 0.208 | analgesic efficacy, Von-frey test (in words) [1]: concentration-dependent from 1 h after treatment and was maintained until 3 h after treatment | concentration of highest analgesic efficacy, Von-frey test [1]: 40 mg/kg and 80 mg/kg

O=C(NC1=NCC2c3ccccc3Cc3ccccc3N12)c1ccccc1O (stereo not shown) [E-S, N-(9,13b-dihydro-1H-dibenzo[c,f]imidazo[1,5-a]azepin-3-yl)-2-hydroxybenzamide]
inhibition at 12.5 µM (Raw 264.7 cells): 0% | inhibition at 25 µM (Raw 264.7 cells): 9.47% | inhibition at 50 µM (Raw 264.7 cells): 30.8% | inhibition at 100 µM (Raw 264.7 cells): 40.8% | reduction of NO production (in words) (Raw 264.7 cells): concentration-dependent reduction in NO production | threshold values (Von-frey test) ([1]; oral 10 mg/kg, 1 h): 0.247 | threshold values (Von-frey test) ([1]; oral 10 mg/kg, 2 h): 0.208 | threshold values (Von-frey test) ([1]; oral 10 mg/kg, 3 h): 0.363 | threshold values (Von-frey test) ([1]; oral 10 mg/kg, 4 h): 0.330 | threshold values (Von-frey test) ([1]; oral 10 mg/kg, 5 h): 0.286 | threshold values (Von-frey test) ([1]; oral 10 mg/kg, basal): 0.247 | threshold values (Von-frey test) ([1]; oral 20 mg/kg, 1 h): 0.286 | threshold values (Von-frey test) ([1]; oral 20 mg/kg, 2 h): 0.208 | threshold values (Von-frey test) ([1]; oral 20 mg/kg, 3 h): 0.314 | threshold values (Von-frey test) ([1]; oral 20 mg/kg, 4 h): 0.186 | threshold values (Von-frey test) ([1]; oral 20 mg/kg, 5 h): 0.324 | threshold values (Von-frey test) ([1]; oral 20 mg/kg, basal): 0.208 | threshold values (Von-frey test) ([1]; oral 40 mg/kg, 1 h): 0.314 | threshold values (Von-frey test) ([1]; oral 40 mg/kg, 2 h): 0.391 | threshold values (Von-frey test) ([1]; oral 40 mg/kg, 3 h): 0.352 | threshold values (Von-frey test) ([1]; oral 40 mg/kg, 4 h): 0.314 | threshold values (Von-frey test) ([1]; oral 40 mg/kg, 5 h): 0.391 | threshold values (Von-frey test) ([1]; oral 40 mg/kg, basal): 0.225 | threshold values (Von-frey test) ([1]; oral 80 mg/kg, 1 h): 0.613 | threshold values (Von-frey test) ([1]; oral 80 mg/kg, 2 h): 0.574 | threshold values (Von-frey test) ([1]; oral 80 mg/kg, 3 h): 0.391 | threshold values (Von-frey test) ([1]; oral 80 mg/kg, 4 h): 0.419 | threshold values (Von-frey test) ([1]; oral 80 mg/kg, 5 h): 0.225 | threshold values (Von-frey test) ([1]; oral 80 mg/kg, basal): 0.164 | analgesic efficacy, Von-frey test (in words) [1]: concentration-dependent until 1-2 h after treatment | concentration of highest analgesic efficacy, Von-frey test [1]: 80 mg/kg | concentration of highest analgesic efficacy, Von-frey test ([2]; 1 h after treatment, oral 10, 20, 40, 80 mg/kg tested): 80 mg/kg | threshold values (Von-frey test) ([2]; oral 10 mg/kg, 1 h): 0.110 | threshold values (Von-frey test) ([2]; oral 10 mg/kg, 2 h): 0.163 | threshold values (Von-frey test) ([2]; oral 10 mg/kg, 3 h): 0.180 | threshold values (Von-frey test) ([2]; oral 10 mg/kg, 4 h): 0.145 | threshold values (Von-frey test) ([2]; oral 10 mg/kg, 5 h): 0.135 | threshold values (Von-frey test) ([2]; oral 10 mg/kg, basal): 0.113 | threshold values (Von-frey test) ([2]; oral 20 mg/kg, 1 h): 0.173 | threshold values (Von-frey test) ([2]; oral 20 mg/kg, 2 h): 0.208 | threshold values (Von-frey test) ([2]; oral 20 mg/kg, 3 h): 0.191 | threshold values (Von-frey test) ([2]; oral 20 mg/kg, 4 h): 0.137 | threshold values (Von-frey test) ([2]; oral 20 mg/kg, 5 h): 0.194 | threshold values (Von-frey test) ([2]; oral 20 mg/kg, basal): 0.157 | threshold values (Von-frey test) ([2]; oral 40 mg/kg, 1 h): 0.324 | threshold values (Von-frey test) ([2]; oral 40 mg/kg, 2 h): 0.306 | threshold values (Von-frey test) ([2]; oral 40 mg/kg, 3 h): 0.270 | threshold values (Von-frey test) ([2]; oral 40 mg/kg, 4 h): 0.239 | threshold values (Von-frey test) ([2]; oral 40 mg/kg, 5 h): 0.194 | threshold values (Von-frey test) ([2]; oral 40 mg/kg, basal): 0.173 | threshold values (Von-frey test) ([2]; oral 80 mg/kg, 1 h): 0.408 | threshold values (Von-frey test) ([2]; oral 80 mg/kg, 2 h): 0.385 | threshold values (Von-frey test) ([2]; oral 80 mg/kg, 3 h): 0.390 | threshold values (Von-frey test) ([2]; oral 80 mg/kg, 4 h): 0.239 | threshold values (Von-frey test) ([2]; oral 80 mg/kg, 5 h): 0.242 | threshold values (Von-frey test) ([2]; oral 80 mg/kg, basal): 0.176 | analgesic efficacy, Von-frey test (in words) ([2]; oral 10, 20, 40, 80 mg/kg): concentration-dependent until 1 h after treatment and was maintained until 3 h after treatment
